According to PMC6680314, “Characterization of the recombinant Brettanomyces anomalus β‐glucosidase and its potential for bioflavouring” (Journal of Applied Microbiology, 2016):

Experiments:
[1] = tested on: T1, B. anomalus β-glucosidase (YV396 β-glucosidase); assay: glucose release, GOD-PAP assay at […] nm, Michaelis-Menten fit; format: biochemical, Brettanomyces anomalus; conditions: McIlvaine buffer pH 5.75, 37 °C (optimum of this enzyme); free enzyme; read-out: pH 5.75 37°C / K M
T1 construct: gene GH3 beta-glucosidase; full gene (2523 bp incl. stop, about 840 residues), codon optimised, pET28-YV396-His6, tag kept, E. coli BL21(DE3), Ni-Sepharose and Superdex 200

almond β-glucosidase = tested on: T2, almond β-glucosidase; assay: as above; format: biochemical, Prunus dulcis; conditions: McIlvaine buffer pH 5.75, 37 °C; commercial preparation; read-out: pH 5.75 37°C / K M
T2 construct: gene GH1 beta-glucosidase

SMILES | Km [1] [mM] | Km (almond β-glucosidase) [mM]
N#C[C@H](O[C@@H]1O[C@H](CO[C@@H]2O[C@H](CO)[C@@H](O)[C@H](O)[C@H]2O)[C@@H](O)[C@H](O)[C@H]1O)c1ccccc1 [amygdalin] | 1 ± 0.05 | 10.1 ± 0.13
OC[C@H]1O[C@@H](O[C@H]2[C@H](O)[C@@H](O)C(O)O[C@@H]2CO)[C@H](O)[C@@H](O)[C@@H]1O (stereo partly drawn) [cellobiose] | 15.1 ± 0.73 | 0.34 ± 0.08
OCc1ccccc1O[C@@H]1O[C@H](CO)[C@@H](O)[C@H](O)[C@H]1O [salicin] | 1.01 ± 0.18 | 19.6 ± 2.06
